From patent US20220380310A1, “P2X7R ANTAGONISTS” (priority 2019, published 2022)
Structures can show the parent of a compound that is named as a salt.

Molecular target: T1, P2X7R (Homo sapiens, UniProt Q99572)
T1 construct: expressed in transfected cells; host or cells: HEK-293
T1 sequence (Q99572 1-595): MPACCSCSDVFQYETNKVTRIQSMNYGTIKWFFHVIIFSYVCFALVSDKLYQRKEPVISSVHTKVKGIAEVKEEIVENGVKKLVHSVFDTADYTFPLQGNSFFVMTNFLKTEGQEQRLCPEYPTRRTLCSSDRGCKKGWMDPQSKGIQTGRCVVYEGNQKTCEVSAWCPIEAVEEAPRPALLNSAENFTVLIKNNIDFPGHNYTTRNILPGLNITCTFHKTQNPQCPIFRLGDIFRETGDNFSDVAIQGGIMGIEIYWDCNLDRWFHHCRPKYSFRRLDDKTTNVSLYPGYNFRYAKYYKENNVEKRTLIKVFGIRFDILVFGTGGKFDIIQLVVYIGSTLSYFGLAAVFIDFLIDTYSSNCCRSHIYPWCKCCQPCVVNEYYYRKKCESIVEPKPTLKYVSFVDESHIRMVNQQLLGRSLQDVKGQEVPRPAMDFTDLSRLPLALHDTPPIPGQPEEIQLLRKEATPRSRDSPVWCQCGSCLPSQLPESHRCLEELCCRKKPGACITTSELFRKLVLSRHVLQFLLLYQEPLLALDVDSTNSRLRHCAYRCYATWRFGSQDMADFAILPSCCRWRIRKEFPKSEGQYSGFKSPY
Test: Yo-Pro-1 uptake assay (Yo-Pro-1 Assay) in HEK-293 cells transiently transfected with P2X7R
Format: cell-based
Conditions: for remaining activity at 5 µM: HEK293, compound at 5 μM, 30 μM bzATP stimulus, reading 1 hour after stimulation, transfected HEK-293 cells, read-out: Percentage of activity remains in the presence of the compound at 5 μM, P2X7R (Yo-Pro-1 Assay); for IC50: HEK-293 cells transiently transfected with P2X7R, 30 μM bzATP as stimulus, readings 1 hour after stimulation, estimated from dose-response curves
Source text: Yo-Pro-1 Iodide (Cat. No Y3603 from Fisher Scientific) is a fluorescent DNA-binding dye with a MW of 629 Da. This method is based upon the Yo-Pro-1 entrance to cells through the dilated or “large pore form” of P2X7R and its binding to intracellular DNA whereby it increases its fluorescence intensity (J. Pharmacol. Exp. Ther. 308, 1053-1061). The dye has an absorption spectrum compatible with excitation at 488 nm by argon laser sources and its emission wavelength is in the range of 515-575 nm. This Yo-Pro-1 uptake was measured in HEK-293 cells transiently transfected with P2X7R (J. Biol. Chem. 290, 7930-7942). In Brief, HEK-293 cells were seeded in growth medium at approximately 20,000 cells/well in a 96-well plate on day 1. Transfection was performed on day 2 using Lipofectamine 2000 with the P2X7R DNA plasmid at the concentration of 1.7 μg/ml. The transfection solution was replaced with the growth medium 4 hours later. Fluorescent assays were conducted on day 4. On day 4, the medium was removed, the cells were washed with phosphate buffered saline (PBS) (Cat. No. MT21040CV from Fisher Scientific). Then, 25 μl of PBS were first loaded to each well followed by 25 μl of various test compounds. The third 25 μl of solution contained a mixture of Yo-Pro-1 and stimulus bzATP (2′(3′)-O-(4-Benzoylbenzoyl)adenosine-5′-triphosphate tri(triethylammonium) salt). The final concentration of Yo-Pro-1 was 2.5 μM and of bzATP 30 μM. Fluorescence increases were measured every 30 minutes in a microplate device with excitation at 475 nm and emission wavelength in the range of 500-550 nm. PPADS (Pyridoxalphosphate-6-azophenyl-2′,4′-disulfonic acid tetrasodium) was used as the positive control. The wells with no test compounds added nor bzATP and only containing PBS and Yo-Pro-1 were served as the negative control (N Contl). The positive control (P Contl) wells were the same as N Contl but contained the stimulus, bzATP in this case.
Data used for analysis were from microplate readings 1 hour after bzATP stimulation. The result of each well was first normalized by its corresponding base microplate reading. The base microplate reading was the first reading right after all components were added. Then, the negative control signal was subtracted from. In the negative control, the test compound and the stimulus were replaced by PBS. An average of six highest values of the plate (AVG) were considered as 100% and the value of each well was divided by AVG and presented as the relative values in percentages.
For comparison of the antagonistic effectiveness of the compounds of this invention among P2X receptors, assays were conducted at 5 μM. Among 55 compounds tested, 29 can reduce the P2X7R activity to […] of the normal activity (Table 2).

| SMILES | remaining activity at 5 µM [%] | IC50 [µM] |
| --- | --- | --- |
| O=S(=O)(c1ccccc1)C1CN(S(=O)(=O)c2ccc(N3CCCCC3)cc2)C1 [#10] | 70.1 | 5.9 |
| CS(=O)(=O)c1ccc(N2CCCC(NC(=O)CCc3ccccc3)C2)cc1 (stereo not drawn) [#1] | 20 | 3.9 |
| CCOc1ccc(S(=O)(=O)N2CCCC(NC(=O)CCc3ccccc3)C2)cc1 (stereo not drawn) [#37] | 82.7 | 28.5 |
| NS(=O)(=O)c1ccc(N2CCCC(NC(=O)CCc3ccccc3)C2)cc1 (stereo not drawn) [#53] | -0.5 | 4.6 |
| O=C(CCc1ccccc1)NC1CCCN(S(=O)(=O)c2ccc(N3CCC(F)(F)CC3)cc2)C1 (stereo not drawn) [#46] | -8.6 | 3.8 |
| O=C(CCc1ccccc1)N1CCN(S(=O)(=O)c2ccc(F)cc2)CC1 [#30] | 52.2 | 1490 |
| O=C(CCc1ccccc1)NC1CCCN(S(=O)(=O)c2ccc(F)cc2)C1 (stereo not drawn) [#3] | 13.5 | 3.2 |
| O=C(CCc1ccccc1)N1CCNCC1 [#29, hydrochloride] | 88.1 | 10.1 |
| O=C(NCCc1ccccc1)C1CCCN(S(=O)(=O)c2ccc(N3CCCC3)cc2)C1 (stereo not drawn) [#25] | 36.8 | 5.1 |
| O=C(CCc1ccccc1)N1CCN(S(=O)(=O)c2ccc(N3CCOCC3)cc2)CC1 [#32] | 54.3 | 3.8 |
| O=C(NCCc1ccccc1)C1CCN(S(=O)(=O)c2ccc(N3CCOCC3)cc2)CC1 [#23] | 35.8 | 26.6 |
| O=C(CCc1ccccc1)NC1CCCN(S(=O)(=O)c2ccc(OCc3ccccc3)cc2)C1 (stereo not drawn) [#4] | 38.4 | 8.2 |
| CN1CCN(c2ccc(S(=O)(=O)N3CCCC(NC(=O)CCc4ccccc4)C3)cc2)CC1 (stereo not drawn) [#18] | 41.5 | 31.2 |
| O=C(CCc1ccccc1)NC1CCCN(c2ccc(S(=O)(=O)NC3CCCCC3)cc2)C1 (stereo not drawn) [#51] | -1 | 3.1 |
| NC(=O)c1cc(Br)cc(N2CCOCC2)c1 [#28] | 75.2 | 29 |

These reach a lower IC50. Values come first.

| remaining activity at 5 µM [%] | IC50 [µM] | SMILES |
| --- | --- | --- |
| 23.5 | 3 | O=C(CCc1ccccc1)NC1CCCN(S(=O)(=O)c2ccc(F)c(Cl)c2)C1 (stereo not drawn) [#43] |
| 4.6 | 2.9 | O=C(CCc1ccccc1)NC1CCCN(c2ccc(S(=O)(=O)N3CCCC3)cc2)C1 (stereo not drawn) [#55] |
| 10.7 | 2.7 | CC(C)COc1ccc(S(=O)(=O)N2CCCC(NC(=O)CCc3ccccc3)C2)cc1 (stereo not drawn) [#6] |
| 1.4 | 2.6 | CC(C)N(C(C)C)S(=O)(=O)c1ccc(N2CCCC(NC(=O)CCc3ccccc3)C2)cc1 (stereo not drawn) [#49] |
| 36.9 | 2.2 | O=C(CCc1ccccc1)NC1CCCN(c2ccc(S(=O)(=O)NCc3ccco3)cc2)C1 (stereo not drawn) [#52] |
| -14.5 | 2.1 | O=C(CCc1ccccc1)NC1CCCN(S(=O)(=O)Cc2ccc(Br)cc2)C1 (stereo not drawn) [#8] |
| 18.3 | 1.8 | CC(C)(C)OC(=O)N1CCC(C2CCN(c3ccc(S(=O)(=O)N4CCCC(NC(=O)CCc5ccccc5)C4)cc3)CC2)CC1 (stereo not drawn) [#41] |
| -12.2 | 1 | CCCCNc1ccc(S(=O)(=O)N2CCCC(NC(=O)CCc3ccccc3)C2)cc1 (stereo not drawn) [#15] |
| 36.2 | 0.9 | O=C(NCCc1ccccc1)C1CCN(S(=O)(=O)c2ccc(N3CCCC3)cc2)CC1 [#21] |
| 9.1 | 0.8 | CC1CCN(c2ccc(S(=O)(=O)N3CCCC(NC(=O)CCc4ccccc4)C3)cc2)CC1 (stereo not drawn) [#40] |
| -5.1 | 0.1 | CC1CCCN(c2ccc(S(=O)(=O)N3CCCC(NC(=O)CCc4ccccc4)C3)cc2)C1 (stereo not drawn) [#44] |
| -7.4 | 0.1 | CC1CCCCN1c1ccc(S(=O)(=O)N2CCCC(NC(=O)CCc3ccccc3)C2)cc1 (stereo not drawn) [#47] |
